Measured values from PubChem BioAssay (NCI).
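A five-concentration, 48-hour dose response in 96-well plates underlies each endpoint, interpolated linearly between surrounding concentrations. At the TGI there is no net growth.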

Each compound was assayed on HT29 colon (assay: NCI anticancer screen, dose series, 48 h).

| Structure (SMILES) | TGI |
| --- | --- |
| COc1ccc(NC2=CC(=O)C(=O)c3ccccc32)nn1 | 3.54 µM |
| CC1(C(=O)O)CCCC1C(=O)O (stereo not drawn) | > 100 µM |
| C=c1c(OC)c(OC)c(O)c2c1=c1cc([N+](=O)[O-])cc(OC)c1=N2 | > 100 µM |

Each compound was assayed on CAKI-1 renal (assay: NCI anticancer screen, dose series, 48 h).

| Structure (SMILES) | TGI |
| --- | --- |
| C=C1C(=O)O[C@@]23C1CC[C@@H](C)C2CC[C@@]1(C)OC31 (stereo partly drawn) | 18.4 µM |
| O=c1[nH]nc(-c2ccccc2)c2[nH]c(-c3ccccc3)cc12 | > 100 µM |
| CC1S/C(=N/c2nnc(-c3ccccc3)o2)NC1=O (stereo not drawn) | > 100 µM |
| CC1(C)CNC(=O)C2(C=NC(C)(C)CNC(=O)C3(C=N1)CCCO3)CCCO2 (stereo not drawn) | > 10 µM |
| CC(=S)N=Cc1c(O)cc(C)oc1=O | > 100 µM |
| COc1ccc(NC2=CC(=O)C(=O)c3ccccc32)nn1 | 6.24 µM |
| CC1(C(=O)O)CCCC1C(=O)O (stereo not drawn) | > 100 µM |
| C=c1c(OC)c(OC)c(O)c2c1=c1cc([N+](=O)[O-])cc(OC)c1=N2 | > 100 µM |

What follows are compounds tested on HCC-2998 colon (assay: NCI anticancer screen, dose series, 48 h).

| Structure (SMILES) | TGI |
| --- | --- |
| C=C1C(=O)O[C@@]23C1CC[C@@H](C)C2CC[C@@]1(C)OC31 (stereo partly drawn) | 16.2 µM |
| CC1(C)CNC(=O)C2(C=NC(C)(C)CNC(=O)C3(C=N1)CCCO3)CCCO2 (stereo not drawn) | > 10 µM |
| CC(=S)N=Cc1c(O)cc(C)oc1=O | > 100 µM |
| COc1ccc(NC2=CC(=O)C(=O)c3ccccc32)nn1 | 21.2 µM |
| C=c1c(OC)c(OC)c(O)c2c1=c1cc([N+](=O)[O-])cc(OC)c1=N2 | > 100 µM |

Each compound was assayed on SK-MEL-5 melanoma (assay: NCI anticancer screen, dose series, 48 h).

| Structure (SMILES) | TGI |
| --- | --- |
| C=C1C(=O)O[C@@]23C1CC[C@@H](C)C2CC[C@@]1(C)OC31 (stereo partly drawn) | 12.3 µM |
| CC1S/C(=N/c2nnc(-c3ccccc3)o2)NC1=O (stereo not drawn) | > 100 µM |
| CC1(C)CNC(=O)C2(C=NC(C)(C)CNC(=O)C3(C=N1)CCCO3)CCCO2 (stereo not drawn) | > 10 µM |
| CC(=S)N=Cc1c(O)cc(C)oc1=O | > 100 µM |
| COc1ccc(NC2=CC(=O)C(=O)c3ccccc32)nn1 | 2 µM |
| CC1(C(=O)O)CCCC1C(=O)O (stereo not drawn) | > 100 µM |
| C=c1c(OC)c(OC)c(O)c2c1=c1cc([N+](=O)[O-])cc(OC)c1=N2 | > 100 µM |

These compounds were tested on SF-268 CNS (assay: NCI anticancer screen, dose series, 48 h).

| Structure (SMILES) | TGI |
| --- | --- |
| C=C1C(=O)O[C@@]23C1CC[C@@H](C)C2CC[C@@]1(C)OC31 (stereo partly drawn) | 34.3 µM |
| O=c1[nH]nc(-c2ccccc2)c2[nH]c(-c3ccccc3)cc12 | > 100 µM |
| CC1S/C(=N/c2nnc(-c3ccccc3)o2)NC1=O (stereo not drawn) | > 100 µM |
| CC1(C)CNC(=O)C2(C=NC(C)(C)CNC(=O)C3(C=N1)CCCO3)CCCO2 (stereo not drawn) | > 10 µM |
| CC(=S)N=Cc1c(O)cc(C)oc1=O | > 100 µM |
| COc1ccc(NC2=CC(=O)C(=O)c3ccccc32)nn1 | 6.95 µM |
| CC1(C(=O)O)CCCC1C(=O)O (stereo not drawn) | > 100 µM |
| C=c1c(OC)c(OC)c(O)c2c1=c1cc([N+](=O)[O-])cc(OC)c1=N2 | > 100 µM |

These compounds were tested on TK-10 renal (assay: NCI anticancer screen, dose series, 48 h).

| Structure (SMILES) | TGI |
| --- | --- |
| C=C1C(=O)O[C@@]23C1CC[C@@H](C)C2CC[C@@]1(C)OC31 (stereo partly drawn) | 16.8 µM |
| CC1S/C(=N/c2nnc(-c3ccccc3)o2)NC1=O (stereo not drawn) | > 100 µM |
| CC1(C)CNC(=O)C2(C=NC(C)(C)CNC(=O)C3(C=N1)CCCO3)CCCO2 (stereo not drawn) | > 10 µM |
| CC(=S)N=Cc1c(O)cc(C)oc1=O | > 100 µM |
| COc1ccc(NC2=CC(=O)C(=O)c3ccccc32)nn1 | 9.92 µM |
| CC1(C(=O)O)CCCC1C(=O)O (stereo not drawn) | > 100 µM |
| C=c1c(OC)c(OC)c(O)c2c1=c1cc([N+](=O)[O-])cc(OC)c1=N2 | > 100 µM |

What follows are compounds tested on EKVX NSCLC (assay: NCI anticancer screen, dose series, 48 h).

| Structure (SMILES) | TGI |
| --- | --- |
| C=C1C(=O)O[C@@]23C1CC[C@@H](C)C2CC[C@@]1(C)OC31 (stereo partly drawn) | 30.5 µM |
| O=c1[nH]nc(-c2ccccc2)c2[nH]c(-c3ccccc3)cc12 | > 100 µM |
| CC1S/C(=N/c2nnc(-c3ccccc3)o2)NC1=O (stereo not drawn) | 85.2 µM |
| CC1(C)CNC(=O)C2(C=NC(C)(C)CNC(=O)C3(C=N1)CCCO3)CCCO2 (stereo not drawn) | > 10 µM |
| CC(=S)N=Cc1c(O)cc(C)oc1=O | > 100 µM |
| COc1ccc(NC2=CC(=O)C(=O)c3ccccc32)nn1 | 9.82 µM |
| CC1(C(=O)O)CCCC1C(=O)O (stereo not drawn) | > 100 µM |
| C=c1c(OC)c(OC)c(O)c2c1=c1cc([N+](=O)[O-])cc(OC)c1=N2 | > 100 µM |

These compounds were tested on HOP-62 NSCLC (assay: NCI anticancer screen, dose series, 48 h).

| Structure (SMILES) | TGI |
| --- | --- |
| C=C1C(=O)O[C@@]23C1CC[C@@H](C)C2CC[C@@]1(C)OC31 (stereo partly drawn) | 39.3 µM |
| O=c1[nH]nc(-c2ccccc2)c2[nH]c(-c3ccccc3)cc12 | > 100 µM |
| CC1S/C(=N/c2nnc(-c3ccccc3)o2)NC1=O (stereo not drawn) | > 100 µM |
| CC1(C)CNC(=O)C2(C=NC(C)(C)CNC(=O)C3(C=N1)CCCO3)CCCO2 (stereo not drawn) | > 10 µM |
| CC(=S)N=Cc1c(O)cc(C)oc1=O | > 100 µM |
| CC1(C(=O)O)CCCC1C(=O)O (stereo not drawn) | > 100 µM |
| C=c1c(OC)c(OC)c(O)c2c1=c1cc([N+](=O)[O-])cc(OC)c1=N2 | > 100 µM |
